Measurements: ChEMBL document CHEMBL1125802, “Isolation and structure of the cell growth inhibitory constituents from the western Pacific marine sponge Axinella sp” (1991)
Values after ≈ are worked out from the molar mass of the structure shown. Where a SMILES comes first, the peptide text is derived from it.

How the values were obtained:
[1] = tested on: P388; test: Effect on P388 lymphocytic leukemia (PS system) cell growth; format: functional; details: Mus musculus, read-out: ED50 (the source's name)
[2] = tested on: P388; test: Effect on change in life span of P388 lymphocytic leukemia (PS system) cell growth at 100 mg/kg; format: functional, Mus musculus
[3] = tested on: P388; test: Effect on P388 lymphocytic leukemia (PS system) cell growth […]; format: functional; details: Mus musculus, read-out: ED50 (the source's name)
[4] = tested on: P388; test: T/C at 25 mg/kg; format: functional, Mus musculus
[5] = tested on: P388; test: T/C at 150 ug/kg; format: functional, Mus musculus

Work on `CC(C)O.ClCCl` yielded an EC50 [1] of 2.5 mg/L and a Life span [2] of 10%.
For `CC(C)[C@@H]1NC(=O)[C@H](Cc2ccccc2)NC(=O)[C@@H]2CCCN2C(=O)[C@H](CC(N)=O)NC(=O)[C@H](C(C)C)NC(=O)[C@@H]2CCCN2C(=O)[C@H](C(C)C)NC1=O` (cyclo(FVVPVNP)), the EC50 [3] was 0.21 mg/L (≈ 0.279 µM).
`C=C1C[C@@H]2CC[C@@]34C[C@H]5O[C@H]6[C@@H](O3)[C@H]3O[C@H](CC[C@@H]3O[C@H]6[C@H]5O4)CC(=O)O[C@@H]3[C@@H](C)[C@@H]4O[C@@H]5C[C@]6(C[C@@H]7O[C@]8(C[C@H](C)[C@@H]9O[C@H]([C@@H](O)C[C@@H](O)CO)C[C@@H]9O8)C[C@H](C)[C@@H]7O6)O[C@@H]5C[C@@H]4O[C@H]3C[C@H]3O[C@@H](CC[C@@H]1O2)C[C@@H](C)C3=C` [HALICHONDRIN B] showed a T/C [4] of 238.
`C=C1C[C@@H]2CC[C@@]34C[C@H]5O[C@H]6[C@@H](O3)[C@H]3O[C@H](CC[C@@H]3O[C@H]6[C@H]5O4)CC(=O)O[C@@H]3[C@@H](C)[C@@H]4O[C@@H]5C[C@]6(C[C@@H]7O[C@]8(C[C@H](C)[C@@H]9O[C@@H]%10CC(C(O)CO)O[C@@H]%10C[C@@H]9O8)C[C@H](C)[C@@H]7O6)O[C@@H]5C[C@@H]4O[C@H]3C[C@H]3O[C@@H](CC[C@@H]1O2)C[C@@H](C)C3=C` (stereo not given in full) [HOMOHALICHONDRIN B] was tested, and the T/C [5] was 285.
